Patent publication US20240156825A1, “USE OF SELECTIVE VEGFR2 AND FGFR1 INHIBITORS” (Fountain Therapeutics Inc., priority 2022, published 2024)
Where two headings read alike, the source gives them in different places.

Columns and labels:
VEGFR2 and FGFR1 = experiment: Selection of compounds that selectively inhibit both VEGFR2 and FGFR1 (average relative IC50); format: biochemical;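 also: relative IC50 is the IC50 for VEGFR2 or FGFR1 divided by the next-lowest IC50 reported against any target gene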
VEGFR2 [1] = target: T1, VEGFR2 (Homo sapiens, UniProt P35968); details: read-out: VEGFR2 IC50_μM; reported IC50 to VEGFR2; Table 3, selective inhibitors of VEGFR2; cited from earlier work
T1 sequence (P35968 20-1356, species assumed): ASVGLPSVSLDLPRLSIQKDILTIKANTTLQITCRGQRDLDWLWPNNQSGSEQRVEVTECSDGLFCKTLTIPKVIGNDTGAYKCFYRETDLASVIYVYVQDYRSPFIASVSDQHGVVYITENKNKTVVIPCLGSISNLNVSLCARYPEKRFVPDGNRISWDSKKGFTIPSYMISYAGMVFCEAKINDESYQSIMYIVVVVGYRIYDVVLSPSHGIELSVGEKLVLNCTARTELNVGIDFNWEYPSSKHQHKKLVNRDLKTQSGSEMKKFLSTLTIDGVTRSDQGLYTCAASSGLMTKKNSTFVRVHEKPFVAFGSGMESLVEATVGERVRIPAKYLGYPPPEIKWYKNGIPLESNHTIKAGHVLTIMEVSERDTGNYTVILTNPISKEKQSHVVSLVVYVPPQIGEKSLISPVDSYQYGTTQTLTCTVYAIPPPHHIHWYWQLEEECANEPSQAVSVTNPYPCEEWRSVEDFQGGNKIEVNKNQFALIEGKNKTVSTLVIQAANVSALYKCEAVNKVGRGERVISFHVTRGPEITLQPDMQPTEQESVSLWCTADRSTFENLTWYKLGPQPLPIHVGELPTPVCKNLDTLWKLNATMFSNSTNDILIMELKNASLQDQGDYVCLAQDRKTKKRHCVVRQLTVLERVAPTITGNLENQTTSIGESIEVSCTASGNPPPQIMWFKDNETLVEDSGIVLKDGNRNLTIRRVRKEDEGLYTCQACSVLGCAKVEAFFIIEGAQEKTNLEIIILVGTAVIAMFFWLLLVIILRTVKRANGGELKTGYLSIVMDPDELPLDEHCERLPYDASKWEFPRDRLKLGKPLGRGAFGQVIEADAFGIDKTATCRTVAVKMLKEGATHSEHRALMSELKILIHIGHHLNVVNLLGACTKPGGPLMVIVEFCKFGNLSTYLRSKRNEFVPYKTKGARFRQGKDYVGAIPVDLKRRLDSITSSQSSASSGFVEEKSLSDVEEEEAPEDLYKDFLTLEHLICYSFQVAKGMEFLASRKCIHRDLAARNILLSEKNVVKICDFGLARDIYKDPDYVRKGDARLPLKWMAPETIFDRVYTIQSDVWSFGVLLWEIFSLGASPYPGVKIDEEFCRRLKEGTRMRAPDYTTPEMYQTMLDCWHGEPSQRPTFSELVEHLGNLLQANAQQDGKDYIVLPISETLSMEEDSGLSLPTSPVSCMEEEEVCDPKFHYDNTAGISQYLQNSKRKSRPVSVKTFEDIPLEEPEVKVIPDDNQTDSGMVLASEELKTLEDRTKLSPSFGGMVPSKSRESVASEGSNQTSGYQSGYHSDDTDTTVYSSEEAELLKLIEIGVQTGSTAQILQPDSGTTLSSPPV

VEGFR2 [2] = target: T1, VEGFR2
any gene target = details: cited from earlier work
FGFR1 = FGFR1 (Homo sapiens, UniProt P11362)
Chain of FGFR1 (P11362 22-822, species assumed): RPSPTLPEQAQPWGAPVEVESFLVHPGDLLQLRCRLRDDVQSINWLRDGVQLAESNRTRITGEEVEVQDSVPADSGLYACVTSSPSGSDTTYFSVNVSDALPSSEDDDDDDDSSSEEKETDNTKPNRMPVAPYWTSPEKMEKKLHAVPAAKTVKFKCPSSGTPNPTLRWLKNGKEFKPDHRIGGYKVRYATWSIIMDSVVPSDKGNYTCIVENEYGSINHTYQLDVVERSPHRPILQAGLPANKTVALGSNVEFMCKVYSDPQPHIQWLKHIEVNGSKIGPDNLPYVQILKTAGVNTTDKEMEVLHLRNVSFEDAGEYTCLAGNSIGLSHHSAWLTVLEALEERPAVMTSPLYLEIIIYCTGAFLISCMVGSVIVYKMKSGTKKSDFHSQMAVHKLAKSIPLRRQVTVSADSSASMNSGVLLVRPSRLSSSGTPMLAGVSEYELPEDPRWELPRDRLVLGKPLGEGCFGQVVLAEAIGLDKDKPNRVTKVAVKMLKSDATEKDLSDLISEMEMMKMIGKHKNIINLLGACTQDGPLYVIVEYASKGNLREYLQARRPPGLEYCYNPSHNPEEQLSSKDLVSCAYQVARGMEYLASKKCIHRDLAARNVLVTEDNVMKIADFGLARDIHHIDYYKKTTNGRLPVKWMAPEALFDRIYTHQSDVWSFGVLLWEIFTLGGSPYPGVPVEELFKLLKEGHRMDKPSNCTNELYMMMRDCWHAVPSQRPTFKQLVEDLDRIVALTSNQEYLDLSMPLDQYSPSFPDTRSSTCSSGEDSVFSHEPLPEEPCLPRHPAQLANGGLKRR

[3] = average of VEGFR2 and FGFR1 relative IC50
[4] = relative IC50: reported IC50 toward VEGFR2 divided by next lowest reported IC50 to any gene target
[5] = lowest reported IC50 to any gene target, read-out: min IC50
[6] = relative IC50: reported IC50 toward FGFR1 divided by next lowest reported IC50 to any gene target
[7] = next lowest IC50 value to any gene target, read-out: Min IC50_μM

CONC(=O)c1cc(Nc2ncnn3cc(-c4nnc(CC(C)C)o4)c(C(C)C)c23)c(F)cc1F [compound 11352215, 2,4-Difluoro-5-[6-(5-isobutyl-[1,3,4]oxadiazol-2-yl)-5-isopropyl-pyrrolo[2,1-f][1,2,4]triazin-4-ylamino]-N-methoxy-benzamide, reference compound]
avg rIC50 (VEGFR2 and FGFR1; [3]): 2.1 | IC50 (VEGFR2 [1]): 2.1 nM | VEGFR2, rIC50 (VEGFR2 [2]; [4]): 1.0 | IC50 (any gene target; [5]): 2 nM | IC50 (any gene target; next lowest IC50 value to any gene target, Table 3, read-out: Min IC50_μM): 2.1 nM | FGFR1, rIC50 (FGFR1; [6]): 3.1

Chembl4213341 [compound 138393067]
avg rIC50 (VEGFR2 and FGFR1; [3]): 5.2 | VEGFR2, rIC50 (VEGFR2 [2]; [4]): 1.7 | IC50 (any gene target; [5]): 37 nM | FGFR1, rIC50 (FGFR1; [6]): 8.7

COC(=O)c1ccc2c(C(=Nc3ccc(CN(C)C(=O)N(C)C)cc3)c3ccccc3)c(O)[nH]c2c1 [compound 135837837, Methyl 3-[N-[4-[[dimethylcarbamoyl(methyl)amino]methyl]phenyl]-C-phenylcarbonimidoyl]-2-hydroxy-1H-indole-6-carboxylate]
avg rIC50 (VEGFR2 and FGFR1; [3]): 5.6 | VEGFR2, rIC50 (VEGFR2 [2]; [4]): 6.1 | IC50 (any gene target; [5]): 10 nM | FGFR1, rIC50 (FGFR1; [6]): 5.0

Fc1ccc2c(-c3nc4cc(N5CCC(N6CCCCC6)CC5)ccc4[nH]3)n[nH]c2c1 [compound 135458467, 2-(6-Fluoro-1H-indazol-3-yl)-5-(4-(piperidin-1-yl)piperidin-1-yl)-1H-benzo[d]imidazole]
avg rIC50 (VEGFR2 and FGFR1; [3]): 1.8 | VEGFR2, rIC50 (VEGFR2 [2]; [4]): 1.6 | IC50 (any gene target; [5]): 16 nM | FGFR1, rIC50 (FGFR1; [6]): 2.0

Nc1c(-c2nc3ccccc3[nH]2)c(=O)[nH]c2ccccc12 [compound 135410282, 4-Amino-3-(1H-benzo[d]imidazol-2-yl)quinolin-2(1H)-one]
avg rIC50 (VEGFR2 and FGFR1; [3]): 4.4 | VEGFR2, rIC50 (VEGFR2 [2]; [4]): 5.8 | IC50 (any gene target; [5]): 10 nM | FGFR1, rIC50 (FGFR1; [6]): 3.0

CCS(=O)(=O)c1ccc2c(c1)C(=Cc1[nH]c3c(c1CN1CCOCC1)CCCC3)C(=O)N2 [compound 44299203, 3-[3-(Morpholinomethyl)-4,5,6,7-tetrahydro-1H-indole-2-ylmethylene]-5-(ethylsulfonyl)-2,3-dihydro-1H-indole-2-one]
avg rIC50 (VEGFR2 and FGFR1; [3]): 3.6 | VEGFR2, rIC50 (VEGFR2 [2]; [4]): 1.4 | IC50 (any gene target; [5]): 70 nM | FGFR1, rIC50 (FGFR1; [6]): 5.7

COc1ccc(N2Cc3cnc(Nc4ccccc4)nc3N([C@H]3CC[C@H](O)C3)C2=O)cc1 [compound 11407794, (−)-(1S,3S)-1-(3-Hydroxy-cyclopentyl)-3-(4-methoxy-phenyl)-7-phenylamino-3,4-dihydro-1H-pyrimido[4,5-d]pyrimidin-2-one]
avg rIC50 (VEGFR2 and FGFR1; [3]): 1.5 | VEGFR2, rIC50 (VEGFR2 [2]; [4]): 0.5 | IC50 (any gene target; [5]): 33 nM | IC50 (any gene target; [7]): 33 nM | FGFR1, rIC50 (FGFR1; [6]): 2.5

C[C@@H](Oc1ccc2[nH]nc(-c3nc4cc(N5CCN(C)CC5)ccc4[nH]3)c2c1)c1c(Cl)cncc1Cl [compound 136211077, 5-[(R)-1-(3,5-Dichloropyridine-4-yl)ethoxy]-3-[5-(4-methylpiperazine-1-yl)-1H-benzoimidazole-2-yl]-1H-indazole]
avg rIC50 (VEGFR2 and FGFR1; [3]): 4.4 | VEGFR2, rIC50 (VEGFR2 [2]; [4]): 8.3 | IC50 (any gene target; Table 2, lowest reported IC50 to any gene target, read-out: Min IC50_μM): 2 nM | IC50 (any gene target; [5]): 1 nM | FGFR1, rIC50 (FGFR1; [6]): 0.4

CONC(=O)c1cc(Nc2ncnn3cc(-c4nnc(C)[nH]4)c(C(C)C)c23)c(F)cc1F [compound 11328182, 2,4-Difluoro-5-[5-isopropyl-6-(5-methyl-4H-[1,2,4]triazol-3-yl)-pyrrolo[2,1-f][1,2,4]triazin-4-ylamino]-N-methoxy-benzamide]
avg rIC50 (VEGFR2 and FGFR1): 1.0 | VEGFR2, rIC50 (VEGFR2 [2]; [4]): 1.1 | IC50 (any gene target; lowest reported IC50 to any gene target, read-out: Min IC50_μM): 46 nM | IC50 (any gene target; [5]): 46 nM | FGFR1, rIC50 (FGFR1): 1.0

Chembl4449189 [compound 155520650]
avg rIC50 (VEGFR2 and FGFR1; [3]): 1.8 | VEGFR2, rIC50 (VEGFR2 [2]; [4]): 2.4 | IC50 (any gene target; [5]): 110 nM | FGFR1, rIC50 (FGFR1; [6]): 1.2

COc1ccc(N2Cc3cnc(Nc4ccccc4)nc3N([C@@H]3CC[C@@H](O)C3)C2=O)cc1 [compound 9910609, (+)-(1R,3R)-1-(3-Hydroxy-cyclopentyl)-3-(4-methoxy-phenyl)-7-phenylamino-3,4-dihydro-1H-pyrimido[4,5-d]pyrimidin-2-one]
avg rIC50 (VEGFR2 and FGFR1; [3]): 1.4 | VEGFR2, rIC50 (VEGFR2 [2]; [4]): 0.4 | IC50 (any gene target; [5]): 28 nM | IC50 (any gene target; [7]): 28 nM | FGFR1, rIC50 (FGFR1; [6]): 2.4

Chembl4573547 [compound 155563388]
avg rIC50 (VEGFR2 and FGFR1; [3]): 1.5 | VEGFR2, rIC50 (VEGFR2 [2]; [4]): 1.1 | IC50 (any gene target; [5]): 150 nM | FGFR1, rIC50 (FGFR1; [6]): 1.9

Cc1nnc(-c2cn3ncnc(Nc4cnc5[nH]ccc5c4)c3c2C(C)C)o1 [compound 44449577, 6-(5-Methyl-1,3,4-oxadiazol-2-yl)-5-propan-2-yl-N-(1H-pyrrolo[2,3-b]pyridin-5-yl)pyrrolo[2,1-f][1,2,4]triazin-4-amine]
avg rIC50 (VEGFR2 and FGFR1): 1.2 | VEGFR2, rIC50 (VEGFR2 [2]; [4]): 0.5 | IC50 (any gene target; read-out: Min IC50_μM): 61 nM | IC50 (any gene target; read-out: min IC50): 61 nM | FGFR1, rIC50 (FGFR1): 2.0

Cc1cc2cc(Nc3ncnn4cc(-c5nnc(C)o5)c(C(C)C)c34)cnc2[nH]1 [compound 22273644, 5-Isopropyl-6-(5-methyl-1,3,4-oxadiazol-2-yl)-N-(2-methyl-1H-pyrrolo[2,3-b]pyridin-5-yl)pyrrolo[2,1-f][1,2,4]triazin-4-amine]
avg rIC50 (VEGFR2 and FGFR1; [3]): 1.8 | VEGFR2, rIC50 (VEGFR2 [2]; [4]): 0.5 | IC50 (any gene target; [5]): 25 nM | IC50 (any gene target; [7]): 53 nM | FGFR1, rIC50 (FGFR1; [6]): 3.1

O=C1c2ccc(O)c(O)c2OC[C@]1(O)Cc1ccc(O)c(O)c1 [compound 44578561, Hematoxylone]
avg rIC50 (VEGFR2 and FGFR1; [3]): 5.3 | VEGFR2, rIC50 (VEGFR2 [2]; [4]): 7.2 | FGFR1, rIC50 (FGFR1; [6]): 3.4

CONC(=O)c1cc(Nc2ncnn3cc(-c4nnc(C(F)F)o4)c(C(C)C)c23)c(F)cc1F [compound 10073832, 5-[6-(5-Difluoromethyl-[1,3,4]oxadiazol-2-yl)-5-isopropyl-pyrrolo[2,1-f][1,2,4]triazin-4-ylamino]-2,4-difluoro-N-methoxy-benzamide]
avg rIC50 (VEGFR2 and FGFR1; [3]): 1.1 | VEGFR2, rIC50 (VEGFR2 [2]; [4]): 1.0 | FGFR1, rIC50 (FGFR1; [6]): 1.2

CNC(=O)c1cccc2cc(Oc3ccnc4cc(OCC5(N)CC5)c(OC)cc34)ccc12 [compound 25031915, Lucitanib]
avg rIC50 (VEGFR2 and FGFR1; [3]): 3.0 | VEGFR2, rIC50 (VEGFR2 [2]; [4]): 3.6 | IC50 (any gene target; [5]): 10 nM | FGFR1, rIC50 (FGFR1): 2.5

COC(=O)Nc1ccc(-c2c(OC3CCN(C)CC3)nc3c(-c4ccc(OC)c(OC)c4)cnn3c2N)cc1 [compound 156010414, Methyl N-[4-[7-amino-3-(3,4-dimethoxyphenyl)-5-(1-methylpiperidin-4-yl)oxypyrazolo[1,5-a]pyrimidin-6-yl]phenyl]carbamate]
avg rIC50 (VEGFR2 and FGFR1; [3]): 3.0 | VEGFR2, rIC50 (VEGFR2 [2]; [4]): 4.3 | IC50 (any gene target; [5]): 6 nM | FGFR1, rIC50 (FGFR1; [6]): 1.7

NC(=O)c1c(OCc2c(F)cc(Br)cc2F)nsc1NC(=O)NCCCCN1CCCC1 [compound 9811611, 3-((4-Bromo-2,6-difluorobenzyl)oxy)-5-(3-(4-(pyrrolidin-1-yl)butyl)ureido)isothiazole-4-carboxamide]
avg rIC50 (VEGFR2 and FGFR1; [3]): 3.6 | VEGFR2, rIC50 (VEGFR2 [2]; [4]): 0.4 | IC50 (any gene target; [5]): 1 nM | IC50 (any gene target; [7]): 3.08 nM | FGFR1, rIC50 (FGFR1; [6]): 6.7

COc1cc2c(cc1F)C(c1ccccc1Cl)=NC1=C(C)NNC1=N2 [compound 135398512, 5-(2-Chlorophenyl)-7-fluoro-1,2-dihydro-8-methoxy-3-methylpyrazolo(3,4-b)(1,4)benzodiazepine]
avg rIC50 (VEGFR2 and FGFR1; [3]): 1.6 | VEGFR2, rIC50 (VEGFR2 [2]): 0.4 | IC50 (any gene target; read-out: Min IC50_μM): 24 nM | IC50 (any gene target; read-out: min IC50): 24 nM | FGFR1, rIC50 (FGFR1): 2.8

CNC(=O)c1cccc2cc(Oc3ccnc4cc(OCC5(N)CC5)c(OC)cc34)ccc12.Cl [compound 57379018, 6-((7-((1-Aminocyclopropyl)methoxy)-6-methoxyquinolin-4-yl)oxy)-N-methyl-1-naphthamide hydrochloride]
avg rIC50 (VEGFR2 and FGFR1; [3]): 3.0 | VEGFR2, rIC50 (VEGFR2 [2]; [4]): 3.6 | IC50 (any gene target; read-out: min IC50): 10 nM | FGFR1, rIC50 (FGFR1): 2.5
